Laboratory results from patent publication US20250320250A1, “PHARMACEUTICAL COMPOSITIONS FOR THE TREATMENT OF VISCERAL PAIN” (Ironwood Pharmaceuticals, Inc., priority 2021, published 2025).

Tested on: visceral hypersensitivity and bladder dysfunction
Experiment: Nonclinical pharmacology models of visceral hypersensitivity and bladder dysfunction
Format: in vivo
Conditions: doses above 10 μg/kg/day
Description: The peptide of the present disclosure doses of 100 μg and 300 μg were selected based on nonclinical pharmacology models of visceral hypersensitivity and bladder dysfunction using the peptide of the present disclosure and another GC-C agonist, linaclotide, with similar activity. […] The human equivalent daily dose (HED) extrapolated from pharmacologically active dose levels in nonclinical models is 180 μg to 600 μg (based on body weight) and 15 μg to 100 μg based on body surface area. Choosing 2 doses for investigation in this study should allow for observation of a dose response.

Substance: peptide of the present disclosure: GC-C agonist peptide, active pharmaceutical ingredient of the rectal foam composition (CXELCCNVACYGC; not fully specified; SITE 2 X is a homocysteine contributing to a cystathionine unit (linking the homocysteine at residue 2 and cysteine at residue 10 via a thioether bond); DISULFID 1..6 Intrachain; DISULFID 5..13 Intrachain; CROSSLNK 2..10 homocysteine at position 2 and the cysteine at position 10 are connected by an internal sulfide (or thioether bond); SITE 1 Optionally acetylated N-terminus)
- benefit at higher doses: diminishing benefit
